Several values for one entry are separate records, joined by “and”; a condition that tells them apart may be missing. Equal entries are not always repeated.
Columns and labels:
[1] = system: K. pneumoniae 5216; experiment: BLI potentiation MIC, K. pneumoniae 5216 (TEM-1A); format: cell-based; details: BLI fixed 4 ug/ml; incubation 19 h
Procedure: (§1) MIC90 (μg/mL) is the lowest concentration of an antibiotic that will inhibit the visible growth of 90% of microorganisms after incubation as compared with a control group to which the antibiotic is not treated.
(§2) MIC values were measured by the broth microdilution method developed by the Clinical and Laboratory Standards Institute (CLSI) (see CLSI M07-A9, Methods for Dilution Antimicrobial Susceptibility Test for Bacteria that Grow Aerobically; Approved Standard-Ninth Edition (2012): CLSI, Villanova, Pa.). The in vitro antibacterial activity was measured with respect to the following 9 clinical isolates: P. aeruginosa (3 strains); K. pneumoniae (6 strains). The in vitro antibacterial activity of selected compounds was measured with respect to the following 15 clinical isolates: K. pneumoniae (15 strains).

[2] = system: K. pneumoniae MP14; experiment: BLI potentiation MIC, K. pneumoniae MP14; format: cell-based; details: BLI fixed 4 ug/ml; incubation 19 h
Procedure: as §1, §2

[3] = system: P. aeruginosa ARC3506; experiment: BLI potentiation MIC, P. aeruginosa ARC3506 (VEB-1, OXA-10, OprD−, AmpC); format: cell-based; details: BLI fixed 4 ug/ml; incubation 19 h
Procedure: as §1, §2

[4] = system: P. aeruginosa ATCC27853; experiment: BLI potentiation MIC (broth microdilution), P. aeruginosa ATCC27853 (PoxB, AmpC); format: cell-based; details: BLI fixed 4 ug/ml; incubation 19 h
Procedure: as §1, §2

[5] = system: K. pneumoniae 23; experiment: BLI potentiation MIC, K. pneumoniae 23; format: cell-based; details: BLI fixed 4 ug/ml; incubation 19 h
Procedure: as §1, §2

[6] = system: K. pneumoniae 6839; experiment: BLI potentiation MIC, K. pneumoniae 6839 (SHV-11, SHV-12, DHA-1); format: cell-based; details: BLI fixed 4 ug/ml; incubation 19 h
Procedure: as §1, §2

[7] = system: E. coli K0519020; experiment: MIC of strain used for extraction of enzymes, E. coli K0519020 (CTX-M-15, TEM-1, OXA-1, AmpC (NC_000913)); format: cell-based; details: BLI: 4 ug/mL
[8] = biological target: T1, CMY-10 β-lactamase (class C) (Klebsiella aerogenes, UniProt Q99QC1); experiment: Inhibitory activity against β-lactamases (nitrocefin), CMY-10; format: biochemical; details: 100 μM nitrocefin, 30° C., pH 6.8; read-out: IC50 values, CMY-10
T1 construct: MICs of bacterial strains used for extraction of enzymes; endogenous in cells
Procedure: (§3) More diluted stocks were prepared as necessary. Enzyme activity was determined by monitoring the change of absorbance at 492 nm using the characteristic molecular extinction coefficient (Δε492=17,400 M^−1 cm^−1) of nitrocefin by a Shimazu UV-1650PC spectrophotometer. The nitrocefin was purchased from OXOID. Kinetic measurements were run at 30° C. in 10 mM MES[2-(N-morpholino)ethanesulfonic acid]buffer (pH 6.8) or 10 mM MES[2-(N-morpholino)ethanesulfonic acid] buffer (pH 6.8), […] BSA and 50 mM sodium bicarbonate. Reactions were performed in 2.5 mL cuvettes with 100 μM nitrocefin and initiated by adding 1.5 nM to 2.5 nM enzyme. The first 180 s of each reaction was used to measure initial rates. Data were evaluated using Microsoft Excel. Concentration dependent inhibition of enzyme was measured using different concentrations of inhibitors resulting from two-fold dilution series. Reaction progress at every concentration of inhibitor was measured in triplicates. IC50 values were calculated using 4-parameter log fits using XL Fit curve fitting software (www.idbs.com) for Excel using the following equation:
(§4) [formula] where y is the remaining enzyme activity (in %) and x is the corresponding concentration. he fitted IC50 parameter is the relative IC50, and is defined as the concentration giving a response half way between the fitted top (B) and bottom (A) of the curve.

[9] = system: K. pneumoniae 5117; experiment: BLI potentiation MIC, K. pneumoniae 5117 (SHV-11, TEM-1); format: cell-based; details: BLI fixed 4 ug/ml; incubation 19 h
Procedure: as §1, §2

[10] = system: K. pneumoniae CL5761; experiment: MIC of strain used for extraction of enzymes, K. pneumoniae CL5761 (KPC-3, TEM-216, SHV-5); format: cell-based; details: BLI: 4 ug/mL
Procedure: as §1, §2

[11] = system: K. pneumoniae 5576; experiment: BLI potentiation MIC, K. pneumoniae 5576 (SHV-11, CMY-2, DHA-1, TEM-1); format: cell-based; details: BLI fixed 4 ug/ml; incubation 19 h
Procedure: as §1, §2

[12] = system: P. aeruginosa ARC3514; experiment: BLI potentiation MIC, P. aeruginosa ARC3514 (KPC-2, OprD−, AmpC); format: cell-based; details: BLI fixed 4 ug/ml; incubation 19 h
Procedure: as §1, §2

[13] = system: K. pneumoniae NDM-506; experiment: BLI potentiation MIC, K. pneumoniae NDM-506; format: cell-based; details: BLI fixed 4 ug/ml; incubation 19 h
Procedure: as §1, §2

[14] = system: K. pneumoniae 4006; experiment: BLI potentiation MIC, K. pneumoniae 4006 (SHV-12, CTX-M-15, TEM-1, OXA-9); format: cell-based; details: BLI fixed 4 ug/ml; incubation 19 h
Procedure: as §1, §2

[15] = system: K. pneumoniae 4248; experiment: BLI potentiation MIC, K. pneumoniae 4248 (SHV-11, CTX-M-15, TEM-1, OXA-1); format: cell-based; details: BLI fixed 4 ug/ml; incubation 19 h
Procedure: as §1, §2

[16] = system: K. pneumoniae 101; experiment: BLI potentiation MIC, K. pneumoniae 101; format: cell-based; details: BLI fixed 4 ug/ml; incubation 19 h
Procedure: as §1, §2

[17] = system: K. pneumoniae 3784; experiment: BLI potentiation MIC, K. pneumoniae 3784 (SHV-11, SHV-12, DHA-1); format: cell-based; details: BLI fixed 4 ug/ml; incubation 19 h
Procedure: as §1, §2

[18] = system: K. pneumoniae 5971(KOX); experiment: BLI potentiation MIC, K. pneumoniae 5971(KOX); format: cell-based; details: BLI fixed 4 ug/ml; incubation 19 h
Procedure: as §1, §2

[19] = system: K. pneumoniae ATCC700603; experiment: BLI potentiation MIC, K. pneumoniae ATCC700603 (SHV-3); format: cell-based; details: BLI fixed 4 ug/ml; incubation 19 h
Procedure: as §1, §2

[20] = biological target: T2, OXA-48 β-lactamase (class D) (Klebsiella pneumoniae, UniProt Q6XEC0); experiment: Inhibitory activity against β-lactamases (nitrocefin), OXA-48; format: biochemical; details: 100 μM nitrocefin, 30° C., pH 6.8
T2 construct: MICs of bacterial strains used for extraction of enzymes; endogenous in cells; host or cells: bacterial strain carrying OXA-48 (E. coli according to the earlier reading)
Procedure: as §3, §4

[21] = system: E. aerogenes K9911729; experiment: MIC of strain used for extraction of enzymes, E. aerogenes K9911729 (CMY-10, TEM-1, SHV-12, AmpC (DQ478697)); format: cell-based; details: BLI: 4 ug/mL
[22] = system: K. pneumoniae 100; experiment: BLI potentiation MIC, K. pneumoniae 100; format: cell-based; details: BLI fixed 4 ug/ml; incubation 19 h
Procedure: as §1, §2

[23] = system: K. pneumoniae 89; experiment: BLI potentiation MIC, K. pneumoniae 89; format: cell-based; details: BLI fixed 4 ug/ml; incubation 19 h
Procedure: as §1, §2

[24] = system: K. pneumoniae 7586; experiment: BLI potentiation MIC, K. pneumoniae 7586; format: cell-based; details: BLI fixed 4 ug/ml; incubation 19 h
Procedure: as §1, §2

[25] = biological target: KPC-3 β-lactamase (class A) (Klebsiella pneumoniae, UniProt Q9F663, H272Y); experiment: Inhibitory activity against β-lactamases (nitrocefin), KPC-3; format: biochemical, K. pneumoniae; details: 100 μM nitrocefin, 30° C., pH 6.8; read-out: IC50 values, KPC-3
Procedure: as §3, §4

[26] = system: K. pneumoniae 6540; experiment: BLI potentiation MIC, K. pneumoniae 6540; format: cell-based; details: BLI fixed 4 ug/ml; incubation 19 h
Procedure: as §1, §2

T1 sequence (Q99QC1 24-382): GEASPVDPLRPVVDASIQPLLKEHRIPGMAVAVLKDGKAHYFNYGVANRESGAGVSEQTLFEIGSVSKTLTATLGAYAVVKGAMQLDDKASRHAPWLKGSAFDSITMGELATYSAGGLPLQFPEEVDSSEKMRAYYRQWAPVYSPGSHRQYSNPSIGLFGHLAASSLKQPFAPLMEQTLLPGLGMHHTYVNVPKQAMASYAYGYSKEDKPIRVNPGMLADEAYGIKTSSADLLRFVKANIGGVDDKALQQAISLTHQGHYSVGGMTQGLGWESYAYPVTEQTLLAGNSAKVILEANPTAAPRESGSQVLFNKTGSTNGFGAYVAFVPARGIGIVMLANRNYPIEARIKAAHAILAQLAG
T2 sequence (Q6XEC0 23-265, looked up): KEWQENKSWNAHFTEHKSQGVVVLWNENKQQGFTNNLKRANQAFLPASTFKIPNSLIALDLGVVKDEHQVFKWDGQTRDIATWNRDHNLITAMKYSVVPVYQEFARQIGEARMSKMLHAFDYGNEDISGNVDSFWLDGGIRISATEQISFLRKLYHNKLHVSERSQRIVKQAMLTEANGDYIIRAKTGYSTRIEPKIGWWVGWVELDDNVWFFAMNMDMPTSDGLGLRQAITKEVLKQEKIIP
Chain of KPC-3 β-lactamase (class A) (Q9F663 25-293 H272Y): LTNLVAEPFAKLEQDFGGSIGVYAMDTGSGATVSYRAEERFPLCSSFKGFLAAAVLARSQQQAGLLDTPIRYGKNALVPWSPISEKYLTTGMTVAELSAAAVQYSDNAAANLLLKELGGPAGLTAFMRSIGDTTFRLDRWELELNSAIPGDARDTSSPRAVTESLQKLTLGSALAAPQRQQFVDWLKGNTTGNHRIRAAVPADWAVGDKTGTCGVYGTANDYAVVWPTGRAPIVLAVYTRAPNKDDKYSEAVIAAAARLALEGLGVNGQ

With NCCONC(=O)[C@@H]1CC[C@@H]2CN1C(=O)N2OS(=O)(=O)O [OP-595] the “MIC of LCB10-0200 with BLI” value [1] was 0.25 μg/mL and 0.5 μg/mL, the “MIC of Meropenem with BLI” value [1] was 2 µg/mL and the “MIC of LCB10-0200 with BLI” value [2] was 0.03125 μg/mL and <0.0312 μg/mL. The “MIC of Ceftazidime with BLI” value [3] was 32 µg/mL, the “MIC of LCB10-0200 with BLI” value [3] was 0.25 μg/mL and the “MIC of Meropenem with BLI” value [3] was 64 µg/mL. For the same compound, the “MIC of Ceftazidime with BLI” value [4] was 2 µg/mL, the “MIC of LCB10-0200 with BLI” value [4] was 0.25 μg/mL and 0.5 μg/mL and the “MIC of Meropenem with BLI” value [4] was 2 µg/mL. For the same compound, the “MIC of LCB10-0200 with BLI” value [5] was 1 μg/mL, the “MIC of LCB10-0200 with BLI” value [6] was 0.0625 μg/mL and the “MIC of LCB10-0200 with BLI” value [7] was 0.0625 μg/mL. The “MIC of Meropenem with BLI” value [7] was 0.125 µg/mL, the IC50 [8] was 42.6 µM and the “MIC of LCB10-0200 with BLI” value [9] was 0.0625 μg/mL. The “MIC of Meropenem with BLI” value [9] was 0.5 µg/mL and 0.25 µg/mL, the “MIC of LCB10-0200 with BLI” value [10] was 0.25 μg/mL and the “MIC of Meropenem with BLI” value [10] was 1 µg/mL. For the same compound, the “MIC of Ceftazidime with BLI” value [11] was 0.125 µg/mL, the “MIC of LCB10-0200 with BLI” value [11] was 0.0625 μg/mL and the “MIC of Meropenem with BLI” value [11] was 0.03125 µg/mL and 0.0625 µg/mL. The “MIC of Ceftazidime with BLI” value [12] was 8 µg/mL, the “MIC of LCB10-0200 with BLI” value [12] was 0.125 μg/mL and 0.25 μg/mL and the “MIC of Meropenem with BLI” value [12] was over 64 µg/mL. For the same compound, the “MIC of Ceftazidime with BLI” value [13] was 0.125 µg/mL, the “MIC of Meropenem with BLI” value [13] was over 64 µg/mL and the “MIC of Ceftazidime with BLI” value [14] was 0.125 µg/mL. For the same compound, the “MIC of LCB10-0200 with BLI” value [14] was 0.03125 μg/mL and 0.0625 μg/mL, the “MIC of Meropenem with BLI” value [14] was 0.0625 µg/mL and the “MIC of Ceftazidime with BLI” value [15] was 0.0625 µg/mL. For the same compound, the “MIC of LCB10-0200 with BLI” value [15] was under 0.03125 μg/mL, the “MIC of Meropenem with BLI” value [15] was 0.0625 µg/mL and the “MIC of LCB10-0200 with BLI” value [16] was 0.25 μg/mL. The “MIC of Meropenem with BLI” value [16] was 0.125 µg/mL and 0.0625 µg/mL, the “MIC of Ceftazidime with BLI” value [17] was 0.5 µg/mL and the “MIC of LCB10-0200 with BLI” value [17] was 0.0625 μg/mL. The “MIC of Meropenem with BLI” value [17] was 0.25 µg/mL, the “MIC of LCB10-0200 with BLI” value [18] was 8 μg/mL and 16 μg/mL and the “MIC of Ceftazidime with BLI” value [19] was 0.125 µg/mL. For the same compound, the “MIC of LCB10-0200 with BLI” value [19] was 0.125 μg/mL, the “MIC of Meropenem with BLI” value [19] was 0.125 µg/mL and 0.0625 µg/mL and the IC50 [20] was 44.2 µM. For the same compound, the “MIC of LCB10-0200 with BLI” value [21] was under 0.0312 μg/mL, the “MIC of Meropenem with BLI” value [21] was under 0.0312 µg/mL and the “MIC of LCB10-0200 with BLI” value [22] was 0.0625 μg/mL. For the same compound, the “MIC of LCB10-0200 with BLI” value [23] was 0.0625 μg/mL, the “MIC of LCB10-0200 with BLI” value [24] was 0.03125 μg/mL and 0.0625 μg/mL and the IC50 [25] was 0.0637 µM. The “MIC of LCB10-0200 with BLI” value [26] was 0.0625 μg/mL and the “MIC of Meropenem with BLI” value [26] was 0.125 µg/mL and 0.0625 µg/mL.
